Test results reported in paper PMC5605686, “Ang-(1-7) is an endogenous β-arrestin-biased agonist of the AT1 receptor with protective action in cardiac hypertrophy” (Scientific Reports, 2017).
Like-named read-outs stand apart in the source and are kept apart here. Blank lines part the entries; values can stand above or below the molecule they belong to.

What was measured:
[1] = tested on: isoproterenol-induced cardiac hypertrophy; test: Isoproterenol-induced cardiac hypertrophy in rats (HW/BW ratio, left ventricular wall thickness); format: in vivo, Wistar rats; conditions: 7 days
Procedure: (§1) The isoproterenol-induced cardiac hypertrophy experimental model was chosen aiming to avoid any involvement of the RAS, as it is known that other models such as pressure-overload, SHR, or mRen2 involve RAS components[50],[60],[61]. Cardiac hypertrophy was induced in male, 6 weeks-old Wistar rats by administration of Isoproterenol [(Iso) 2 mg/kg per day, i.p. diluted in saline, for 7 days]. All experimental protocols were performed in accordance with the Brazilian Council for Control of Animal Experimentation - “Conselho Nacional de Controle de Experimentação Animal” (CONCEA), Brazil; and approved by the Animal Ethical Committee from the Ribeirão Preto Medical School, University of São Paulo (CEUA).
(§2) Rats receiving Iso were randomly submitted to treatment for 7 days with either vehicle, Ang-(1-7) [24 μg/kg per hour, via ALZET® osmotic minipumps (Durect, Cupertino, CA, USA)], Ang-(1-7) plus Losartan (10 mg/kg per day orally), Ang-(1-7) plus A779 (744 μg/kg per day i.p.), or Ang-(1-7) plus Losartan plus A779 (same doses as described). Doses and administration methods of drugs were based in previously published literature[62]–[66].
Cardiac hypertrophy was confirmed by cardiac mass and histomorphometric analyses. To determine cardiac mass, hearts were removed, dried and weighted. Heart weight (HW) was normalized by the body weight (BW) (HW/BW*1000). For histomorphometric analysis, hearts were cut transversely, fixed in paraformaldehyde (4%) for 24 hours, and kept in ethanol (70%) until dehydration, which consisted in sequential washes with 70, 80, 90 and 100% ethanol. Samples were cleared in xylene and embedded in paraffin. Transversal sections (6 µm) were obtained from the cardiac samples at intervals of 40 µm and stained with hematoxylin and eosin. Images were captured using an Olympus BK 50 microscope (Olympus Corporation of the Americas, Center Valley, PA, USA) equipped with a SPOT RT3 digital camera (Diagnostic Instruments, Inc., Sterling Heights, MI, USA) and measured with ImageJ software (NIH, USA).

[2] = molecular target: T1, AT1R (Homo sapiens, UniProt P30556); test: Competition binding assay against [3H]AngII in whole HEK293T cells transiently expressing the AT1R
T1 construct: expressed in transfected cells; host or cells: HEK293T
T1 sequence (P30556 1-359): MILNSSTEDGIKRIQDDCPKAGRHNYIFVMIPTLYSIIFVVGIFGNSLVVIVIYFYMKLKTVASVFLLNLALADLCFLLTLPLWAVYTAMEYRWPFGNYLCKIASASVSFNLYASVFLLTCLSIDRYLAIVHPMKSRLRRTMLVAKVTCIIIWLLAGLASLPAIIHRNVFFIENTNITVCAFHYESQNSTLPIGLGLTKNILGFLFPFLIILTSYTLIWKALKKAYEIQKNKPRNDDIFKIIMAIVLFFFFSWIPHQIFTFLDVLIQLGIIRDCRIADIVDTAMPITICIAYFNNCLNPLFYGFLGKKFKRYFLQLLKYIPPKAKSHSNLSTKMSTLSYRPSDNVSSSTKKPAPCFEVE
Procedure: (§3) HEK293T cells were cultured in DMEM supplemented with 10% heat-inactivated fetal bovine serum and 100 U/mL penicillin/streptomycin at 37 °C under 5% CO2. Cells were seeded in 100-mm dishes and 48 hours before the experiments, transiently transfected with the AT1R (alone or in combination with BRET-based biosensors). Transient transfections were performed using 25 kDa linear polyethylenimine (PEI – Polysciences, Warrington, PA, USA) at a ratio of 3:1 PEI/DNA. The total amount of transfected DNA was kept constant (10 μg/dish) by the addition of salmon sperm DNA.
Binding assays were performed in whole HEK293T cells at 48 hours after transfection. Twenty-four hours before the experiment, transfected cells were transferred to 24-well plates, treated with poly-L-lysine, and then incubated overnight at 37 °C, in a 5% CO2 environment. […] Samples were collected and mixed with 3 mL of scintillation liquid, and radioactivity was measured using a Liquid Scintillation Counter (Packard Tri-Carb 2100TR – PerkinElmer).

[3] = tested on: AT1R; test: BRET assay of β-arrestin 1 recruitment to AT1R-GFP (β-arr1-RLucII); format: cell-based; conditions: for β-arr1 recruitment Emax (%): percentage of the maximum values obtained for AngII
Procedure: as §3
(§4) HEK293T cells transiently expressing the AT1R (or AT1R-GFP) and BRET-based biosensors (Gαq-RLucII or Gαi3-RLucII, Gβ1 and Gγ1-GFP10; RLucII-β-arr1-GFP10; RLucII-β-arr2-GFP10; β-arr1-RLucII; β-arr2-RLucII) were washed once with PBS, detached, and seeded in 96-well white plates (OptiPlate – PerkinElmer, Waltham, MA, USA). Following agonist stimulation, cells were incubated at 37 °C and the luciferase substrate (coelenterazine H for BRET1 or coelenterazine 400a for BRET2 – Biotium, Hayward, CA, USA) was added 5 min before reading BRET in a Victor^TM X Light Luminescence microplate reader (PerkinElmer) equipped with different donor/acceptor emission filter sets. The BRET signal was determined as the ratio of light emitted by fluorescently-labeled biosensors, detected with energy acceptor filters (530 ± 20 nm for BRET1 or 515 ± 20 nm for BRET2), and light emitted by RLucII-tagged biosensors, detected with energy donor filters (480 ± 20 nm for BRET[1] or 410 ± 40 nm for BRET2). The specific BRET signal was defined as the difference between the total BRET signals and the one obtained with RLucII alone.

[4] = molecular target: T1, AT1R; test: Intramolecular BRET assay of β-arrestin 1 conformational changes (RLucII-β-arr1-GFP10); format: cell-based
Procedure: (§5) Receptor promoted activation of β-arrestin results in a conformational rearrangement that can be monitored by BRET-based double brilliance biosensors assessing changes in BRET between RLucII and GFP10 fused respectively to the N- and C-termini of β-arrestins[35]–[37]. Therefore, to assess whether the recruitment of β-arrestins to the AT1R by Ang-(1-7) leads to activation, we monitored the agonist-promoted change in the intramolecular BRET.
(§6) HEK293T cells were cultured in DMEM supplemented with 10% heat-inactivated fetal bovine serum and 100 U/mL penicillin/streptomycin at 37 °C under 5% CO2. […]
(§7) HEK293T cells transiently expressing the AT1R (or AT1R-GFP) and BRET-based biosensors (Gαq-RLucII or Gαi3-RLucII, Gβ1 and Gγ1-GFP10; RLucII-β-arr1-GFP10; RLucII-β-arr2-GFP10; β-arr1-RLucII; β-arr2-RLucII) were washed once with PBS, detached, and seeded in 96-well white plates (OptiPlate – PerkinElmer, Waltham, MA, USA). Following agonist stimulation, cells were incubated at 37 °C and the luciferase substrate (coelenterazine H for BRET1 or coelenterazine 400a for BRET2 – Biotium, Hayward, CA, USA) was added 5 min before reading BRET in a Victor^TM X Light Luminescence microplate reader (PerkinElmer) equipped with different donor/acceptor emission filter sets. […]

[5] = molecular target: T1, AT1R; test: BRET-based biosensor assay of Gi3 activation in HEK293T cells expressing AT1R; format: cell-based
Procedure: as §3, §7

[6] = molecular target: T1, AT1R; test: Intramolecular BRET assay of β-arrestin 2 conformational changes (RLucII-β-arr2-GFP10); format: cell-based
Procedure: as §5, §6, §7

[7] = tested on: isoproterenol-induced cardiac hypertrophy; test: End-diastolic pressure (EDP) in rats with isoproterenol-induced cardiac hypertrophy; format: in vivo, Wistar rats; conditions: 24 μg/kg per hour, osmotic mini-pump, 7 days, concomitantly with isoproterenol
Procedure: as §1
as §2, with “Doses and administration methods of drugs were based in previously published literature[62]–[66].” left out
Rats were anesthetized with isoflurane (5% for induction and 2–2.5% to maintain anesthesia). […] After stabilization, signals were continuously recorded using a pressure-volume conductance system (MPVS, Millar Instruments) connected to a Power Lab/4SP (ADI Instruments, Sydney, NSW, Australia) feeding the digital signal to an […].

[8] = molecular target: T1, AT1R; test: Intracellular calcium mobilization assay (FLIPR Calcium 5) in HEK293T cells expressing AT1R; format: cell-based
Procedure: Cells were seeded in 100-mm dishes and 48 hours before the experiments, transiently transfected with the AT1R (alone or in combination with BRET-based biosensors). Transient transfections were performed using 25 kDa linear polyethylenimine (PEI – Polysciences, Warrington, PA, USA) at a ratio of 3:1 PEI/DNA. The total amount of transfected DNA was kept constant (10 μg/dish) by the addition of salmon sperm DNA. Twenty-four hours after transfection, HEK293T cells were washed once with PBS, detached, and seeded in 96-well clear-bottom black plates (Cellstar – Greiner Bio-One, Monroe, NC, USA) precoated with poly-L-lysine (Sigma-Aldrich, St. Louis, MO, USA). Cells were cultured in supplemented DMEM without phenol red (Gibco) at a density of 50,000 cells/well for an additional 24-hour period. […] To provide a baseline level, fluorescence was recorded every 2 seconds during 16 seconds. Following agonist stimulation, fluorescence continued to be recorded every 2 seconds for 90 seconds.

[9] = molecular target: T1, AT1R; test: ERK1/2 phosphorylation by Western blotting in cells transiently expressing the AT1R; format: cell-based; conditions: 1 μM, 2-30 minutes, compared to AngII
Procedure: Cells transiently expressing the AT1R were seeded on 6-well plates in fully supplemented DMEM and kept at 37 °C. […] Cells were lysed with lysis buffer consisting of 10 mM Tris-HCl, pH 7.5, 150 mM NaCl, 1 mM EDTA, 1mM EGTA, 0.1% SDS, 1% Nonidet P-40 and the following protease inhibitors: 2 mM PMSF, 100 µg/mL SBTI, 10 µg/mL leupeptin, 100 µg/mL aprotinin, 10 mM benzamidin and 2 mM sodium orthovanadate. Following homogenization at 4 °C, during 30 minutes, cellular lysates were centrifuged for 15 minutes (18,000 × g) at 4 °C and total protein from the supernatants was quantified by the Bradford method (Bio-Rad, Hercules, CA). After that, 50 µg of total protein were resolved in SDS-PAGE, transferred to nitrocellulose membranes and Western blotting was performed against total ERK (tERK) and phosphorylated ERK (pERK) (both antibodies from Santa Cruz Biotechnology, Santa Cruz, CA, USA; and molecular size markers from ThermoFisher Scientific, Catalog Number 26610). Blots were captured with ImageQuant 350 (GE Healthcare, Piscataway, NJ, USA). Densitometric values obtained after analyses with ImageJ program (http://rsb.info.nhi.gov/ij/) were used to calculate a ratio pERK/tERK, and corresponding results were plotted using GraphPad software (GraphPad, San Diego, CA) as fold of increase over the basal value obtained with vehicle-treated control.

[10] = tested on: AT1R; test: BRET assay of β-arrestin 2 recruitment to AT1R-GFP (β-arr2-RLucII); format: cell-based; conditions: for β-arr2 recruitment Emax (%): percentage of the maximum values obtained for AngII
Procedure: as §3, §4

[11] = molecular target: T1, AT1R; test: BRET-based biosensor assay of Gq activation (Gαq-RLucII / Gγ1-GFP10) in HEK293T cells expressing AT1R; format: cell-based
Procedure: as §3, §7

[12] = molecular target: T2, AT1R-GFP (UniProt P30556 1-359); test: cell-based or functional assay
T2 sequence (looked up): T1 sequence (P30556 1-359)

[13] = molecular target: T3, angiotensin II type 1 receptor (UniProt P30556 1-359); test: cell-based or functional assay
T3 sequence (looked up): T1 sequence (P30556 1-359)

[14] = molecular target: T3, angiotensin II type 1 receptor; test: radioligand binding; competition against 0.5 nM [^3H]AngII on whole HEK293T cells transiently expressing AT1R; 24 h at 4 °C; 25 mM Tris-HCl pH 7.4, 5 mM MgCl2, 0.1% BSA, 100 μg/mL bacitracin; conditions: one partner purified
[15] = 24 μg/kg per hour, osmotic mini-pump, concomitantly with isoproterenol

Molecule: CCCCc1nc(Cl)c(CO)n1Cc1ccc(-c2ccccc2-c2nn[nH]n2)cc1 [Losartan, reference compound]
blockade of the effect of Ang-(1-7) on the cardiovascular parameters (HW/BW, wall thickness, EDP) ([1]; co-treatment with Ang-(1-7), 10 mg/kg per day orally): did not prevent the effect of Ang-(1-7)

Ki ([2]; competition against 0.5 nM [3H]AngII, HEK293T cells expressing AT1R, mean ± SEM, read-out: Binding pKi (converted)): 219 nM
Ki ([2]; competition binding against [3H]AngII, read-out: affinity for the AT1R): ~200 nM
β-arr1 recruitment pEC50 ([3]; BRET, mean ± SEM): 6.38 ± 0.14
EC50 ([4]; intramolecular BRET, mean ± SEM, read-out: β-arr1 conf. changes pEC50 (converted)): 245 nM
Emax ([4]; read-out: β-arr1 conf. changes Emax (%)): 69.1%
Gi3 activation, in words [5]: did not trigger Gi3 activation
EC50 ([6]; intramolecular BRET, mean ± SEM, read-out: β-arr2 conf. changes pEC50 (converted)): 1380 nM
Emax ([6]; read-out: β-arr2 conf. changes Emax (%)): 64.4%
Emax ([8]; HEK-293T, read-out: Ca2+ mobilization Emax (%)): 24.8%
β-arr2 recruitment pEC50 ([10]; BRET, mean ± SEM): 6.56 ± 0.09
Emax ([11]; HEK-293T): 12.8%
Molecule: CC[C@H](C)[C@H](NC(=O)[C@H](Cc1ccc(O)cc1)NC(=O)[C@@H](NC(=O)[C@H](CCCNC(=N)N)NC(=O)[C@@H](N)CC(=O)O)C(C)C)C(=O)N[C@@H](Cc1c[nH]cn1)C(=O)N1CCC[C@H]1C(=O)O [Ang-(1-7), Asp-Arg-Val-Tyr-Ile-His-Pro]
β-arr1 recruitment Emax (%) [3]: 67.8%
β-arr1 recruitment Emax (%) ([3]; listed as Ang1-7): ~70%
end-diastolic pressure (EDP) [7]: completely prevented the increase in EDP
intracellular Ca2+ mobilization, in words ([8]; concentration-response curve, HEK293T cells expressing AT1R): only a weak increase in intracellular Ca^2+ levels
ERK1/2 phosphorylation [9]: partial agonist resulting in lower and more transient activation
β-arr2 recruitment Emax (%) [10]: 87.7%
β-arr2 recruitment Emax (%) ([10]; listed as Ang1-7): ~90%
Gq activation (separation of Gαq-RLucII from Gγ1-GFP10), in words ([11]; any of the concentrations tested, HEK293T cells expressing AT1R): did not promote the separation of Gαq-RLucII from Gγ1-GFP10
cardiac hypertrophy (left ventricular wall thickness) [1, 15]: partially blocked the development of cardiac hypertrophy
heart weight/body weight (HW/BW) ratio [1, 15]: partially blocked

recruitment of β-arr1-RLucII to AT1R-GFP (BRET), pEC50 of the agonist [12]: 6.38
β-arrestin 1 conformational change (intramolecular BRET, RLucII-β-arr1-GFP10) in HEK293T cells expressing AT1R, pEC50 [13]: 6.61
pKi [14]: 6.66
B1: angiotensin-(1-7) (peptide)
peptide: DRVYIHP
notes: heptapeptide angiotensin-(1-7), cut from AngII by ACE2 or from AngI by endopeptidases; printed in three-letter code; also called Ang-(1-7); Ang1-7
